Assay results taken from patent US6841566B2, “Viral polymerase inhibitors” (Boehringer Ingelheim, Ltd., priority 2001, dated 2005).

Tested on: Huh7 cells that stably maintain a subgenomic HCV replicon (S22.3 cell-line)
Assay: Cell based HCV RNA replication assay (S22.3 replicon cells, real-time RT-PCR)
Details: Hepatitis C virus, Huh-7, 72 hours
Protocol: Huh7 cells that stably maintain a subgenomic HCV replicon were established as previously described (Lohman et al., 1999. Science 285: 110-113) and designated as the S22.3 cell-line. S22.3 cells were maintained in Dulbecco's Modified […] Medium (DMEM) supplemented with 10% FBS and 0.5 mg/mL neomycin (Standard Medium). During the assay, DMEM medium supplemented with 10% FBS, containing 0.5% DMSO and lacking neomycin was used (Assay Medium). 16 hours prior to compound addition, S22.3 cells are trypsinized and diluted to 100 000 cells/ml in Standard Medium. 100μL (10 000 cells) are distributed into each well of a 96-well plate. The plate was then incubated at 37° C. with 5% CO2 until the next day.
10 μL of test compound (in 100% DMSO) was added to 2 ml of Assay Medium for a final DMSO concentration of 0.5% and the solution was sonicated for 15 min and filtered through a […] Millipore Filter Unit. 900 μl was transferred into row A of a Polypropylene Deep-Well Titer Plate. Rows B to H, contain 400 μL aliquots of Assay Medium (containing 0.5% DMSO), and were used to prepare serial dilutions (1/2) by transferring 400 μl from row to row (no compound was included in row H).
Cell culture medium was aspirated from the 96-well plate containing the S22.3 cells. 175 μL of assay medium with the appropriate dilution of test compound was transferred from each well of the compound plate to the corresponding well of the cell culture plate (row H was used as the “No inhibition control”). The cell culture plate was incubated at 37° C. with 5% CO2 for 72 hours.
Following the 72 hour incubation period, the total cellular RNA was extracted from the S22.3 cells of the 96-well plate using the RNeasy 96 kit (Qiagen®, RNeasy Handbook. 1999.). Briefly, assay medium was completely removed from cells and 100 μL of RLT buffer (Qiagen®) containing 143 mM β-mercaptoethanol was added to each well of the 96-well cell-culture plate. The microplate was gently shaken for 20 sec. 100 μL of 70% ethanol was then added to each microplate well, and mixed by pipetting. The lysate was removed and applied to the wells of a RNeasy 96 (Qiagen®) plate that was placed on top of a Qiagen® Square-Well Block. The RNeasy 96 plate was sealed with tape and the Square-Well Block with the RNeasy 96 plate was loaded into the holder and placed in a rotor bucket of a 4K15C centrifuge. The sample was centrifuged at 6000 rpm (˜5600×g) for 4 min at room temperature. The tape was removed from the plate and 0.8 ml of Buffer RW1 (Qiagen® RNeasy 96 kit) was added to each well of the RNeasy 96 plate. The RNeasy 96 plate was sealed with a new piece of tape and centrifuged at 6000 rpm for 4 min at room temperature. The RNeasy 96 plate was placed on top of another clean Square-Well Block, the tape removed and 0.8 ml of Buffer RPE (Qiagen® RNeasy 96 kit) was added to each well of the RNeasy 96 plate. The RNeasy 96 plate was sealed with a new piece of tape and centrifuged at 6000 rpm for 4 min at room temperature. The tape was removed and another 0.8 ml of Buffer RPE (Qiagen® RNeasy 96 kit) was added to each well of the RNeasy 96 plate. The RNeasy 96 plate was sealed with a new piece of tape and centrifuged at 6000 rpm for 10 min at room temperature. Tape was removed, the RNeasy 96 plate was placed on top of a rack containing 1.2-mL collection microtubes. The RNA was eluted by adding 50 μL of RNase-free water to each well, sealing plate with a new piece of tape and incubated for 1 min at room temperature. The plate was then centrifuged at 6000 rpm for 4 min at room temperature. The elution step was repeated with a second volume of 50 μl RNase-free water. The microtubes with total cellular RNA are stored at −70° C.
RNA was quantified on the STORM® system (Molecular Dynamics®) using the RiboGreen® RNA Quantification Kit (Molecular Probes®). Briefly, the RiboGreen reagent was diluted 200-fold in TE (10 mM Tris-HCl pH=7.5, 1 mM EDTA). Generally, 50 μL of reagent was diluted in 10 mL TE. […]

Structure (SMILES) | EC50
CC(C)(NC(=O)c1ccc2c(c1)nc(-c1ccoc1)n2C1CCCCC1)C(=O)Nc1ccc(/C=C/C(=O)O)cc1 [compound 1093] | ≤ 5 µM
O=C(O)C=Cc1ccc(NC(=O)C2(NC(=O)c3ccc4c(c3)nc(-c3ccccn3)n4C3CC4CCC3C4)CCCC2)cc1 (mixture of isomers) [compound 2020] | ≤ 5 µM
Cc1c(C(=O)O)sc2ccc(NC(=O)C3(NC(=O)c4ccc5c(c4)nc(-c4ccoc4)n5C4CCCCC4)CCCC3)cc12 [compound 1099] | ≤ 5 µM
O=C(O)/C=C/c1ccc(NC(=O)C2(NC(=O)c3ccc4c(c3)nc(-c3ccoc3)n4C3CCCCC3)CCCCC2)cc1 [compound 1072] | ≤ 5 µM
CC(NC(=O)c1ccc2c(c1)nc(-c1ccoc1)n2C1CCCCC1)C(=O)Nc1ccc(C(=O)O)cc1 (centres unmarked) [compound 1053] | 5 to 50 µM
CCC[C@@H](NC(=O)c1ccc2c(c1)nc(-c1ccoc1)n2C1CCCCC1)C(=O)Nc1ccc(/C=C/C(=O)O)cc1 [compound 1076] | ≤ 5 µM
O=C(O)/C=C/c1ccc(NC(=O)C2(NC(=O)c3ccc4c(c3)nc(-c3ccoc3)n4C3CCCCC3)CC2)cc1 [compound 1070, (E)-3-(4-{[1-(1-{[1-(1-Cyclohexyl-2-furan-3-yl-1H-benzoimidazol-5-yl)-methanoyl]-amino}-cyclopropyl)-methanoyl]-amino}-phenyl)-acrylic acid] | 5 to 50 µM
CC1CCCC(C)C1n1c(-c2cccs2)nc2cc(C(=O)NC3(C(=O)Nc4ccc(C=CC(=O)O)cc4)CCCC3)ccc21 (mixture of isomers) [compound 2035] | ≤ 5 µM
